This note sets out measurements from patent publication US20240158446A1, “CYCLIC COMPOUND HAVING SELECTIVE INHIBITORY ACTION ON KRAS OVER HRAS AND NRAS” (CHUGAI SEIYAKU KABUSHIKI KAISHA, priority 2021, published 2024).

The target of assay [1] is GDP-bound HRAS wild-type protein (Homo sapiens, UniProt P01112). Briefly: Binding to HRAS by surface plasmon resonance (SPR), Single Cycle Kinetics. As to conditions: SPR, GDP-bound HRAS wild-type protein vs GDP-bound KRAS wild-type protein.
Assay [2] deals with GDP-bound KRAS wild-type protein (Homo sapiens, UniProt P01116). Briefly: Binding to KRAS by surface plasmon resonance (SPR), Single Cycle Kinetics. The conditions noted are these: GDP-bound KRAS wild-type protein, read-out: KRAS KD. (Surface plasmon resonance follows binding to a sensor surface in real time, without labels.)
GDP-bound KRAS wild-type protein, sequence (P01116 whole entry): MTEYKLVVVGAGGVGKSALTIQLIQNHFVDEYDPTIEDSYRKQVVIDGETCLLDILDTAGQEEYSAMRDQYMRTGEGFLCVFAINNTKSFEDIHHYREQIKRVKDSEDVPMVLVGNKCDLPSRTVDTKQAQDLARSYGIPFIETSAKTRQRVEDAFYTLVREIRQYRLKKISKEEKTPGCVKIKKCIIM
Assay [3] addresses GDP-bound NRAS wild-type protein (Homo sapiens, UniProt P01111). Briefly: Binding to NRAS by surface plasmon resonance (SPR), Single Cycle Kinetics. As to conditions: SPR, GDP-bound NRAS wild-type protein vs GDP-bound KRAS wild-type protein.
The mark [4] stands for this setting: SPR Single Cycle Kinetics, 1:1 binding model.

pKd: −log10 of the molar value. Like-named read-outs stand apart in the source and are kept apart here. Where a SMILES comes first, the peptide text is derived from it. Bridges are numbered along the chain shown (N, C = ends). [ ]: non-standard residue; d: D form. The star is where a group is joined. hPhe(3-Cl-4-CF3) = N[C@@H](CCc1ccc(C(F)(F)F)c(Cl)c1)C(=O)O; NPrPhe(4-CF3) = CCCN[C@@H](Cc1ccc(C(F)(F)F)cc1)C(=O)O; NMePhe(4-Me) = CN[C@@H](Cc1ccc(C)cc1)C(=O)O; NMeGly(cPent) = CN[C@H](C(=O)O)C1CCCC1; NMeD = CN[C@@H](CC(=O)O)C(=O)O; NMeL = CN[C@@H](CC(C)C)C(=O)O; Morpholide = C1CN(*)CCO1; NMeA = CN[C@@H](C)C(=O)O; NMeAib = CNC(C)(C)C(=O)O; Nle = CCCC[C@H](N)C(=O)O; Piperidide = C1CCN(*)CC1; dNMeA = CN[C@H](C)C(=O)O; Ac5c = NC1(C(=O)O)CCCC1; Aze = O=C(O)[C@@H]1CCN1; Sar = CNCC(=O)O

GDP-bound NRAS wild-type protein, sequence (P01111 whole entry): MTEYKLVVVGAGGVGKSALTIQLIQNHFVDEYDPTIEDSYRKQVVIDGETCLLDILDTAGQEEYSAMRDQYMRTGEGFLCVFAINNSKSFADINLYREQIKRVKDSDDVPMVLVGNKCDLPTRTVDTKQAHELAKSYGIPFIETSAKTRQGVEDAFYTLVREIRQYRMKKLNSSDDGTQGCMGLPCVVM
GDP-bound HRAS wild-type protein, sequence (P01112 whole entry): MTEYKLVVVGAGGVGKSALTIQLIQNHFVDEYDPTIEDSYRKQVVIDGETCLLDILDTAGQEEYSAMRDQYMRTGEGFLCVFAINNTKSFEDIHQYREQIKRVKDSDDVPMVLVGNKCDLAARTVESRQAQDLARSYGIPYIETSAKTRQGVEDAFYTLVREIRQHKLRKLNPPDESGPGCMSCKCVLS

`CCO[C@@H]1C[C@H]2C(=O)NC3(CC(C)(C)C3)C(=O)N(C)[C@@H](C(CC)CC)C(=O)N(C)[C@H](C(=O)N(C)C)CC(=O)N(C)[C@H]3CCCC/C=C/c4ccc(cc4)C[C@@H](C(=O)N(C)CC(=O)N[C@@H](CCc4ccc(Cl)c(Cl)c4)C(=O)N2C1)N1CC/C=C\C[C@@H](C1=O)N(C)C(=O)CN(C)C(=O)[C@H]([C@@H](C)CC)NC3=O` [PP3045]: in assay [1], the “HRAS/KRAS (ratio of KD value for HRAS to KD value for KRAS)” value is “A (a compound having 10 or more and less than 20 is denoted as A)”. Also, the pKd in assay [2] (SPR, Single Cycle Kinetics) is 9.89. The “NRAS/KRAS (ratio of KD value for NRAS to KD value for KRAS)” value in assay [3] is “AA (a compound having 20 or more is denoted as AA)”.

`CCCN1C(=O)CN(C)C(=O)CN(C)C(=O)[C@H]([C@@H](C)CC)NC(=O)[C@H](CC(C)C)N(C)C(=O)C[C@@H](C(=O)N2CCOCC2)N(C)C(=O)[C@H](C2CCCC2)N(C)C(=O)C2(CCCC2)NC(=O)[C@@H]2CCCN2C(=O)[C@H](CCc2ccc(C(F)(F)F)c(Cl)c2)NC(=O)[C@@H](C)N(C)C(=O)[C@@H]1Cc1ccc(C(F)(F)F)cc1` [PP0148] ([NMeL]I[Sar][Sar][NPrPhe(4-CF3)][dNMeA][hPhe(3-Cl-4-CF3)]P[Ac5c][NMeGly(cPent)][NMeD]-Morpholide; lactam N-11): in assay [1], the “HRAS/KRAS (ratio of KD value for HRAS to KD value for KRAS)” value was “B (a compound having 3 or more and less than 10 is denoted as B)”. Moreover, the pKd in assay [2] (setting [4]) was 8.47. In addition, the “NRAS/KRAS (ratio of KD value for NRAS to KD value for KRAS)” value in assay [3] was “B (a compound having 3 or more and less than 10 is denoted as B)”.

For `CCCN(C)C(=O)[C@@H]1CC(=O)N(C)[C@@H](CC(F)F)C(=O)N[C@@H]([C@@H](C)CC)C(=O)N(C)CC(=O)N(C)[C@H]2C/C=C\CCN(C2=O)[C@@H](Cc2ccc(C(F)(F)F)cc2)C(=O)N(C)CC(=O)N[C@@H](CCc2cc(F)c(C(F)(F)F)c(F)c2)C(=O)N2C[C@@H](C)C[C@H]2C(=O)NC2(CC(C)(C)C2)C(=O)N(C)[C@@H](C2CCCC2)C(=O)N1C` [PP2040], the “HRAS/KRAS (ratio of KD value for HRAS to KD value for KRAS)” value in assay [1] was “A (a compound having 10 or more and less than 20 is denoted as A)”. In assay [2] (SPR, Single Cycle Kinetics), the pKd is 9.51. Besides, the “NRAS/KRAS (ratio of KD value for NRAS to KD value for KRAS)” value in assay [3] was “A (a compound having 10 or more and less than 20 is denoted as A)”.

For the molecule `CCO[C@@H]1C[C@H]2C(=O)NC3(CCC3)C(=O)N(C)[C@@H](C3CCCC3)C(=O)N(CCC3CCCC3)[C@H](C(=O)N3CCOCC3)CC(=O)N(C)[C@@H](CC)C(=O)N[C@@H]([C@@H](C)CC)C(=O)N(C)CC(=O)N(C)[C@H]3C/C=C\CCN(C3=O)[C@@H](Cc3ccc(C(F)(F)F)cc3)C(=O)N(C)CC(=O)N[C@@H](CCc3cc(F)c(C(F)(F)F)c(F)c3)C(=O)N2C1` [PP0981], in assay [1], the “HRAS/KRAS (ratio of KD value for HRAS to KD value for KRAS)” value is “A (a compound having 10 or more and less than 20 is denoted as A)”. Besides, the pKd in assay [2] (SPR, Single Cycle Kinetics) was 7.96. For the same molecule, the “NRAS/KRAS (ratio of KD value for NRAS to KD value for KRAS)” value in assay [3] is given as “AA (a compound having 20 or more is denoted as AA)”.

With `C=CC[C@H]1C(=O)N[C@@H]([C@@H](C)CC)C(=O)N(C)CC(=O)N(C)[C@H]2CCCCCN(C2=O)[C@@H](Cc2ccc(C(F)(F)F)cc2)C(=O)N(C)CC(=O)N[C@@H](CCc2cc(F)c(C(F)(F)F)c(F)c2)C(=O)N2C[C@H](OCC)C[C@H]2C(=O)N[C@](C)(CC=C)C(=O)N(C)[C@@H](C2CCCC2)C(=O)N(C)[C@H](C(=O)N2CCOCC2)CC(=O)N1C` [PP0878], in assay [1], the “HRAS/KRAS (ratio of KD value for HRAS to KD value for KRAS)” value is “B (a compound having 3 or more and less than 10 is denoted as B)”. Further, in assay [2] (SPR, Single Cycle Kinetics), the pKd was 8.49. In addition, in assay [3], the “NRAS/KRAS (ratio of KD value for NRAS to KD value for KRAS)” value is “B (a compound having 3 or more and less than 10 is denoted as B)”.

As to `CCO[C@@H]1C[C@H]2C(=O)NC3(CC(C)(C)C3)C(=O)N(C)[C@@H](C(CC)CC)C(=O)N(C)[C@H](C(=O)N(C)C)CC(=O)N(C)[C@@H](C(C)C)C(=O)N[C@@H]([C@@H](C)CC)C(=O)N(C)CC(=O)N(C)[C@H]3C/C=C\CCN(C3=O)[C@@H](Cc3ccc(C)cc3)C(=O)N(C)CC(=O)N[C@@H](CCc3ccc(C(F)(F)F)c(OC)c3)C(=O)N2C1` [PP2173], in assay [1], the “HRAS/KRAS (ratio of KD value for HRAS to KD value for KRAS)” value was “A (a compound having 10 or more and less than 20 is denoted as A)”. Also, the pKd in assay [2] (SPR, Single Cycle Kinetics) was 9.26. Also, in assay [3], the “NRAS/KRAS (ratio of KD value for NRAS to KD value for KRAS)” value is “A (a compound having 10 or more and less than 20 is denoted as A)”.

Turning to `CCO[C@@H]1C[C@H]2C(=O)NC3(CC(C)(C)C3)C(=O)N(C)[C@@H](C3CCCC3)C(=O)N(C)[C@H](C(=O)N(C)C)CC(=O)N(C)[C@H]3CCCCCCc4ccc(cc4)C[C@@H](C(=O)N(C)CC(=O)N[C@@H](CCc4ccc(C(F)(F)F)c(OC)c4)C(=O)N2C1)N1CC/C=C\C[C@@H](C1=O)N(C)C(=O)CN(C)C(=O)[C@H]([C@@H](C)CC)NC3=O` [PP3066], in assay [1], the “HRAS/KRAS (ratio of KD value for HRAS to KD value for KRAS)” value is “B (a compound having 3 or more and less than 10 is denoted as B)”. For the same molecule, the pKd in assay [2] (SPR, Single Cycle Kinetics) is 10.38. Besides, in assay [3], the “NRAS/KRAS (ratio of KD value for NRAS to KD value for KRAS)” value is “A (a compound having 10 or more and less than 20 is denoted as A)”.

Regarding `CCCC[C@@H]1NC(=O)[C@H](CCc2ccc(C(F)(F)F)c(Cl)c2)NC(=O)CN(C)C(=O)[C@H](Cc2ccc(C)cc2)N(C)C(=O)[C@@H]2CCN2C(=O)[C@H](C)N(C)C(=O)[C@H]([C@@H](C)CC)NC(=O)[C@H](CC(C)C)N(C)C(=O)C[C@@H](C(=O)N2CCCCC2)N(C)C(=O)[C@H](CC(C)C)NC(=O)C(C)(C)N(C)C1=O` [PP0047] ([NMeL]I[NMeA][Aze][NMePhe(4-Me)][Sar][hPhe(3-Cl-4-CF3)][Nle][NMeAib]L[NMeD]-Piperidide; lactam N-11), the “HRAS/KRAS (ratio of KD value for HRAS to KD value for KRAS)” value in assay [1] was “C (A compound having a KD ratio of 0.1 or more and less than 3 is denoted as C)”. Further, in assay [2] (setting [4]), the pKd is 7.74. In assay [3], the “NRAS/KRAS (ratio of KD value for NRAS to KD value for KRAS)” value was “C (A compound having a KD ratio of 0.1 or more and less than 3 is denoted as C)”.

Turning to `CCO[C@@H]1C[C@H]2C(=O)NC3(CC(C)(C)C3)C(=O)N(C)[C@@H](C(CC)CC)C(=O)N(C)[C@H](C(=O)N(C)C)CC(=O)N(C)[C@@H](CC)C(=O)N[C@@H]([C@@H](C)CC)C(=O)N(C)CC(=O)N(C)[C@H]3C/C=C\CCN(C3=O)[C@@H](Cc3ccc(C)cc3)C(=O)N(C)CC(=O)N[C@@H](CCc3ccc(C(F)(F)F)c(OC)c3)C(=O)N2C1` [PP2170], in assay [1], the “HRAS/KRAS (ratio of KD value for HRAS to KD value for KRAS)” value was “A (a compound having 10 or more and less than 20 is denoted as A)”. In addition, in assay [2] (SPR, Single Cycle Kinetics), the negative-log Kd (pKd) is 9.48. In assay [3], the “NRAS/KRAS (ratio of KD value for NRAS to KD value for KRAS)” value was “A (a compound having 10 or more and less than 20 is denoted as A)”.

As to `CCC[C@H]1C(=O)N[C@@H]([C@@H](C)CC)C(=O)N(C)CC(=O)N(C)[C@H]2C/C=C\CCN(C2=O)[C@@H](Cc2ccc(C)cc2)C(=O)N(C)CC(=O)N[C@@H](CCc2ccc(C(F)(F)F)c(Cl)c2)C(=O)N2C[C@H](OCC)C[C@H]2C(=O)NC2(CC(C)(C)C2)C(=O)N(C)[C@@H](CC(C)(C)C)C(=O)N(C)[C@H](C(=O)N(C)C)CC(=O)N1C` [PP2230], the “HRAS/KRAS (ratio of KD value for HRAS to KD value for KRAS)” value in assay [1] is “A (a compound having 10 or more and less than 20 is denoted as A)”. For the same molecule, the pKd in assay [2] (SPR, Single Cycle Kinetics) is 10.09. In assay [3], the “NRAS/KRAS (ratio of KD value for NRAS to KD value for KRAS)” value is “A (a compound having 10 or more and less than 20 is denoted as A)”.

As a reminder, the pKd is −log10 of the Kd, conventionally taken in molar units.
